Activity calls are given as the source filed them. How the calls were made is not given here.
Biological target: Ubiquitin carboxyl-terminal hydrolase 10 (Homo sapiens) (UniProt Q14694)
Assay: ubiquitin-specific protease 10 DUB inhibitors, concentration-effect, biochemical, verification of primary screen actives (AID 1645863);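 further: potency values describe inhibition of USP10 cleavage of a fluorogenic ubiquitin substrate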
Conditions: USP10 deubiquitinase enzymatic assay

Ubiquitin carboxyl-terminal hydrolase 10 (Homo sapiens), sequence (Q14694 whole entry, looked up): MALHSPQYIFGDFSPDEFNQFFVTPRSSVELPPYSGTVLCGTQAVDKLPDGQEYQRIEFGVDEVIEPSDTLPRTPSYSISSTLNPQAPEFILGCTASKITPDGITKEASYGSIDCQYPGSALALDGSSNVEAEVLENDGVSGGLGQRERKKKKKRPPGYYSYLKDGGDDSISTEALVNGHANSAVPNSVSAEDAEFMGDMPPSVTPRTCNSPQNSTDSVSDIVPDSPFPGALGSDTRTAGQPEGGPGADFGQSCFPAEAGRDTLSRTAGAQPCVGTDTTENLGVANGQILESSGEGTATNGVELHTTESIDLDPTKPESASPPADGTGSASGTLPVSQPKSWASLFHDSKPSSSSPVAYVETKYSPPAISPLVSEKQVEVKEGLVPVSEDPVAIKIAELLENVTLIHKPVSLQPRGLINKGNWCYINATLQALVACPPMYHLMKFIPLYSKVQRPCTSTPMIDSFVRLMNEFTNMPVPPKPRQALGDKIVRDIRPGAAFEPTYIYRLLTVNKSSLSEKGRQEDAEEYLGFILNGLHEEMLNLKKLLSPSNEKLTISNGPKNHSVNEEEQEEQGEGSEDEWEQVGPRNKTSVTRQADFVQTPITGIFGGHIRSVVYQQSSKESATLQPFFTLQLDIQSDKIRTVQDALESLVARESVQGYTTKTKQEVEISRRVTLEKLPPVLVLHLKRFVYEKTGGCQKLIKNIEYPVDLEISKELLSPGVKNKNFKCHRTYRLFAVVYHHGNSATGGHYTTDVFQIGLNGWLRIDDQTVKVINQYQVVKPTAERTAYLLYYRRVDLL

Row | SMILES | IC50
1 | Cc1cccc(N2C(=O)/C(=C\c3cc(C#N)n(C)c3C)c3ccccc3C2=O)c1 | 34.1 µM
2 | Cn1c(=O)[nH]c(=O)c2c1nc(N1CCc3ccccc3C1)n2CCSc1nnnn1-c1ccccc1 | > 40 µM (inactive)
3 | COc1ccc2nc(N3CC(C(=O)Nc4ccc(C(N)=O)cc4)C3)sc2c1 | > 40 µM (inactive)
4 | CCCCCCCCCCCCCCCc1cc(O)cc(O)c1C(=O)O | 19.3 µM
5 | O=C(NCc1ccco1)c1ccc(Cn2c(SCc3ccccc3)nc3ccncc32)cc1 | > 40 µM (inactive)
6 | CC1CCc2c(sc(NC(=O)c3cccc(S(C)(=O)=O)c3)c2C(N)=O)C1 (configuration not stated) | > 40 µM (inactive)
7 | CS(=O)(=O)c1ccc2nc(N(Cc3cccnc3)C(=O)c3ccc4ccccc4c3)sc2c1 | > 40 µM (inactive)
8 | COC(=O)c1ccccc1NC(=O)C1CCCN(c2nnc(-n3cccc3)s2)C1 (configuration not stated) | > 40 µM (inactive)
9 | CCOC(=O)N1CCN(C(=O)c2ccc(NCc3ccc(F)cc3)c(S(=O)(=O)Nc3cccc(C(F)(F)F)c3)c2)CC1 | 29.8 µM
10 | CC(=O)c1cccc(NC(=O)COC(=O)c2sc3cc(F)ccc3c2Cl)c1 | > 40 µM (inactive)
11 | COc1ccc(/C=C/C(=O)Nc2ccc3nc(N4CCN(c5ncccn5)CC4)cc(C)c3c2)cc1 | > 40 µM (inactive)
12 | Cc1cc(C(=O)N2CCOCC2)c(C)n1-c1ccc(O)cc1 | > 40 µM (inactive)
13 | Cc1ccc(NC(=O)Cn2cc(C(=O)c3ccccc3)c(=O)c3cc(C)ccc32)cc1 | 23.9 µM
14 | CCC1OC(O)(C(C)C(O)C(C)C2OC(=O)/C(C)=C/C(C)=CC(C)C(O)C(C)C/C(C)=C/C=C/C2OC)CC(OC(=O)/C=C/C(=O)NC2=C(O)CCC2=O)C1C (configuration not stated) | 16.6 µM
15 | Cc1cccc(NC(=O)CCCc2nnc3c(=O)n(-c4cccc(F)c4)ccn23)c1 | > 40 µM (inactive)
16 | Cc1ccc(NC(=O)c2cc(-c3ccncc3)n[nH]2)cc1Cl | > 40 µM (inactive)
17 | Nc1ccc(C(=O)OCC(=O)NC2CCCc3ccccc32)cc1[N+](=O)[O-] (configuration not stated) | 37.7 µM
18 | COc1ccc(-c2nc(NCCCN3CCOCC3)c3ccccc3n2)cc1 | > 40 µM (inactive)
19 | COc1ccc(CCN2COc3c(cc(Cl)c4cccnc34)C2)cc1OC | > 40 µM (inactive)
20 | O=C(Nc1ccccc1C(=O)O)c1ccc(CSCc2ccccc2)cc1 | 10.4 µM
21 | COC(=O)c1ccc2c(=O)n(CCCCCC(=O)NCCc3ccccc3Cl)c(=O)[nH]c2c1 | > 40 µM (inactive)
22 | Cn1c(CCNC(=O)c2[nH]nc3c2CCc2ccccc2-3)nc2ccccc21 | 36.1 µM
23 | O=C(COc1ccc(Cl)cc1)Nc1noc(-c2ccccc2)n1 | 32.5 µM

Row | SMILES | IC50
24 | COc1ccc(-c2cc3nc([C@H](C)NC(=O)Cc4cccc(F)c4)nn3cn2)cc1 | > 40 µM (inactive)
25 | CSCCC(NC(=O)c1ccccc1)c1nc2ccccc2n1CC(=O)Nc1ccccc1 (configuration not stated) | 35.9 µM
26 | COc1ccc(Cl)cc1NC(=O)c1nc(-c2cn(-c3ccccc3)nn2)no1 | 14.1 µM
27 | O=C(NC1(O)C(=O)c2ccccc2C1=O)c1cccc2c1-c1ccccc1C2=O | 10.3 µM
28 | COc1ccc([C@H]2Oc3cc(OC)cc(O)c3C(=O)[C@@H]2[C@@H]2C(=O)c3c(O)cc(O)cc3O[C@H]2c2ccc(OC)cc2)cc1 | 18.5 µM
29 | O=C(c1[nH]nc2c1COc1ccccc1-2)N1CCN(c2ccccn2)CC1 | > 40 µM (inactive)
30 | COc1ccc(-c2cc3c(=O)n(CC(=O)NCc4ccccc4)ncn3n2)cc1 | > 40 µM (inactive)
31 | O=C(CSc1ccc(-c2cccc([N+](=O)[O-])c2)nn1)Nc1cccc(F)c1 | 15.9 µM
32 | CC1(C)Cc2c(c(-c3ccco3)nc3sc4c(SCCCc5ccccc5)ncnc4c23)CO1 | 29.1 µM
33 | COc1cc(O)c2c(O)c3c(cc2c1)C[C@@]1(O)CC(=O)C(C(N)=O)=C(O)[C@@]1(O)C3=O | 7.47 µM
34 | Cc1cc(NC(=O)Cn2c(=O)n(Cc3ccco3)c(=O)c3ccc(C(=O)NCCc4ccccc4)cc32)n[nH]1 | 23 µM
35 | CCCC(O)CCCCCCCc1cc(O)cc(O)c1C(=O)OC(CCC)CCCCCCCc1cc(O)cc(O)c1 (configuration not stated) | 21.8 µM
36 | O=C(Cn1cc(C(=O)C(F)(F)F)c2cc(Br)ccc21)N1CCc2ccccc21 | 35.6 µM
37 | O=C1Nc2ccccc2C(=O)C1C(c1ccc(Cl)cc1)C1C(=O)Nc2ccccc2C1=O (configuration not stated) | 10.2 µM
38 | CS(=O)(=O)NC1CCCN(C(=O)Nc2cccc3ccccc23)C1 (configuration not stated) | > 40 µM (inactive)
39 | COc1ccc(OC)c(NC2=NS(=O)(=O)C(c3cccc(Br)c3)=C2C)c1 | > 40 µM (inactive)
40 | CCOCc1ccc(C(=O)N[C@H](C)c2nc3cc(-c4ccc(OC)cc4)ncn3n2)cc1 | > 40 µM (inactive)
41 | Cc1ccc(C(=O)Nc2ccc3c(c2)Sc2ncccc2C(=O)N3C(C)C)cc1C | > 40 µM (inactive)
42 | O=C(/C=C/c1cccc([N+](=O)[O-])c1)N1CCc2ccccc21 | > 40 µM (inactive)
43 | COc1cc2c(=O)n(CC3CCCO3)c(=O)n(CC(=O)c3ccc4c(c3)OCO4)c2cc1OC (configuration not stated) | 37.4 µM
44 | Cn1cc(NC(=O)Nc2cccc3ccccc23)c2ccccc21 | > 40 µM (inactive)
45 | CCOc1ccc2[nH]c(=O)c(-c3nc4ccc(C)cn4c3NCc3ccccc3)cc2c1 | > 40 µM (inactive)
46 | O=C(CSc1oc(-c2ccc(F)cc2)nc1S(=O)(=O)c1ccc(F)cc1)Nc1ccc(F)cc1 | 34.7 µM

Row | SMILES | IC50
47 | O=C(Nc1ccc(-c2cn3ccsc3n2)cc1)c1ccc(Cl)c([N+](=O)[O-])c1 | 19.7 µM
48 | N=C1/C(=C/c2cn(Cc3ccccc3F)c3ccccc23)C(=O)N=C2SC(C(F)(F)F)=NN12 | inactive
49 | COc1ccc(S(=O)(=O)N2CCc3ccccc32)cc1C(=O)Nc1ccc2[nH]c(=O)[nH]c2c1 | 24.2 µM
50 | O=C(c1ccco1)N1CCCC1c1nc(-c2ccccc2)n[nH]1 (configuration not stated) | > 40 µM (inactive)
51 | O=C(Nc1ccccc1Cl)c1cc(-c2ccncc2)n[nH]1 | > 40 µM (inactive)
52 | CCOc1ncccc1C(=O)Nc1ccnn1Cc1ccccc1 | > 40 µM (inactive)
53 | COc1ccc2cc(C(=O)N3CCC(C(C)C(=O)NCc4cccc(F)c4)CC3)[nH]c2c1 (configuration not stated) | 38 µM
54 | O=C(Cn1c(=O)[nH]c2c(-c3ccccc3)c[nH]c2c1=O)NCc1ccccc1Cl | > 40 µM (inactive)
55 | N#Cc1ccc(NC(=O)Nc2cccn(Cc3ccccc3Br)c2=O)cc1 | > 40 µM (inactive)
56 | O=C(COc1ccc(N2CC(C(=O)NCc3ccccc3)CC2=O)cc1)Nc1ccc(F)cc1 (configuration not stated) | > 40 µM (inactive)
57 | COC(=O)c1ccc(N2CCN(C(C)=O)CC2)c(NC(=O)COc2ccc([N+](=O)[O-])cc2)c1 | 25.1 µM
58 | Cc1c(C)n(-c2ccccc2)c2ncn(CC(=O)NCc3cccc(F)c3)c(=O)c12 | > 40 µM (inactive)
59 | O=C(NCCc1nc2ccccc2n1Cc1ccccc1F)c1ccc(Cl)cc1 | 24.4 µM
60 | O=C(Nc1cc(F)c2nc(N3CCCC3)ccc2c1)c1ccco1 | > 40 µM (inactive)
61 | O=C(Cn1c(=O)c2sccc2n(CC(=O)OCc2ccccc2)c1=O)NCc1ccccc1Cl | 16.8 µM
62 | Cc1cc(Cl)ccc1NC(=O)c1cc(-c2ccncc2)n[nH]1 | > 40 µM (inactive)
63 | CC(=O)Nc1ccc(C(=O)/C=C2\NCCc3cc4c(cc32)OCCCO4)cc1 | > 40 µM (inactive)
64 | Cc1ccc(Nc2nc(NCC(=O)Nc3cc(C)ccc3C)nc(Nc3ccc(C)cc3)n2)cc1 | 32.8 µM
65 | O=C1CC(C(=O)Nc2ccc3c(c2)OCO3)n2nc(SCc3ccccc3)nc2N1 (configuration not stated) | > 40 µM (inactive)
66 | COc1ccc(NS(=O)(=O)c2cc(NC(=O)/C=C/c3ccco3)ccc2N2CCCC2)cc1 | > 40 µM (inactive)
67 | O=C1Cc2ccccc2C(=O)N1Cc1cccc(Cl)c1 | 24.1 µM

— PubChem BioAssay AID1645863 (Buhrlage Lab, Dana-Farber Cancer Institute and Novartis …, 2021)
